# How the values were obtained:
# ISC-enriched organoids = test: Secondary (validation) screen, 384-well 2.5-D, ENR+CD 6 days, n=8 wells, vs ENR+CD+DMSO control: basal lysozyme secretion (LYZ.NS); type: cell-based, murine
# [1] = tested on: human small intestinal organoids; test: Immunofluorescent imaging for LYZ, human small intestinal organoids; type: cell-based; settings: 160 nM KPT-330, 6 days
# From the text: To extend the observations from the murine organoid system, Applicants sought to examine how XPO1 inhibition via KPT-330 may effect human small intestinal stem cells by utilizing a stem-cell enriched human small intestinal organoid model^46 (see Methods).
# Immunofluorescent imaging. For immunofluorescence staining of organoids, intestinal organoids in Matrigel were fixed with 4% paraformaldehyde, then transferred to centrifuge tube. After washing with PBS, the isolated organoids were permeabilized with 1% Triton X followed by incubation with blocking buffer (1% BSA+3% Donkey Serum+0.2% Triton X in PBS) at RT. The organoids were then stained with primary antibodies and fluorescent dye-labeled secondary antibodies as well as with DAPI. Slides were covered with […] ® Mounting Media (VECTOR). […] Images were acquired with a confocal laser scanning microscope (Nikon Eclipse 90i). For the analysis of Lysozyme+ cells per organoid area, the number of counted Lysozyme+ cells were normalized to measured organoid surface area. Image J was used for the data analysis.
compound,measurement,setting,value
O=C(/C=C\n1cnc(-c2cc(C(F)(F)F)cc(C(F)(F)F)c2)n1)NNc1cnccn1 [KPT-330],Z.LYZ.NS,ISC-enriched organoids; Dose 0.02 uM,−0.038
same,repSSMD.LYZ.NS,ISC-enriched organoids; Dose 0.02 uM,−0.050
same,Z.LYZ.NS,ISC-enriched organoids; Dose 0.04 uM,−0.318
same,repSSMD.LYZ.NS,ISC-enriched organoids; Dose 0.04 uM,−0.506
same,Z.LYZ.NS,ISC-enriched organoids; dose 0.08 uM,1.132
same,repSSMD.LYZ.NS,ISC-enriched organoids; dose 0.08 uM,1.621
same,increase in LYZ.NS (basal LYZ secretion) relative to ENR+CD control,"ISC-enriched organoids; validated doses, secondary screen",50-75%
same,LYZ+ cell abundance (IF imaging),[1],increased LYZ+ cell abundance
